Assay results reported in the supplement of paper PMC10307832.

Key:
Test in all cases: relative viability (nuclei count vs DMSO), 5 days (fraction); higher = more cells survive
[1] = compound: Cc1cc(Nc2cc(N3CCN(C)CC3)nc(Sc3ccc(NC(=O)C4CC4)cc3)n2)n[nH]1 [Tozasertib] + C[C@@H](Oc1cc(-c2cnn(C3CCNCC3)c2)cnc1N)c1c(Cl)ccc(F)c1Cl [Crizotinib] (partner 1 µM)
Method in brief: (§1)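 Dosing by pin tool came one day after lung cancer cell lines were seeded in 1536-well plates, using either one drug or a fixed anchor-drug dose plus five library-drug doses (not always all listed) in √10 steps. After 5 days, nuclei were counted on 4× images. Relative viability is treated-well nuclei count divided by vehicle-well nuclei count, and values are medians of duplicate plates.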

[2] = compound: Cc1cc(Nc2cc(N3CCN(C)CC3)nc(Sc3ccc(NC(=O)C4CC4)cc3)n2)n[nH]1 [Tozasertib] + Nc1nc2[nH]cc(CCc3ccc(C(=O)N[C@@H](CCC(=O)O)C(=O)O)cc3)c2c(=O)[nH]1 [Pemetrexed] (partner 0.2 µM)
Method in brief: as §1

[3] = compound: Cc1cc(Nc2cc(N3CCN(C)CC3)nc(Sc3ccc(NC(=O)C4CC4)cc3)n2)n[nH]1 [Tozasertib] + CC(=O)Nc1cccc(-n2c(=O)n(C3CC3)c(=O)c3c(Nc4ccc(I)cc4F)n(C)c(=O)c(C)c32)c1 [Trametinib] (partner 0.02 µM)
Method in brief: as §1

[4] = compound: Cc1cc(Nc2cc(N3CCN(C)CC3)nc(Sc3ccc(NC(=O)C4CC4)cc3)n2)n[nH]1 [Tozasertib]
Method in brief: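 In 1536-well plates, lung cancer cell lines rested overnight at 37 °C before five library-drug doses (not always all listed), √10 apart, were pinned onto vehicle-anchored plates. Nuclei were counted with MetaXpress from 4× Hoechst images taken after 5 days without medium change. Viability compares treated-well with vehicle-well nuclei as a median over plates, and plates needed control CV below 25% plus at least one doubling to pass.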

Cell Line	relative viability ([1]; first compound 0.01265 µM)	relative viability ([1]; first compound 0.04 µM)	relative viability ([1]; first compound 0.1265 µM)	relative viability ([2]; first compound 0.004 µM)	relative viability ([2]; first compound 0.01265 µM)	relative viability ([2]; first compound 0.04 µM)	relative viability ([2]; first compound 0.1265 µM)	relative viability ([3]; first compound 0.004 µM)	relative viability ([3]; first compound 0.01265 µM)	relative viability ([3]; first compound 0.04 µM)	relative viability ([3]; first compound 0.1265 µM)	relative viability ([4]; 0.004 µM)	relative viability ([4]; 0.04 µM)	relative viability ([4]; 0.1 µM, anchor plate)	relative viability ([4]; 0.1265 µM)	relative viability ([1]; first compound 0.004 µM)	relative viability ([4]; 0.01265 µM)
HARA	0.984	0.776	0.14	0.24	0.27	0.274	0.203	0.63	0.565	0.608	0.283	0.981	1.01	0.11	0.519	–	–
PC-14	0.914	1.02	0.884	–	0.145	0.143	0.125	–	0.767	0.994	0.595	0.81	1.1	0.601	0.638	0.896	0.904
EPLC-272H	1.03	0.823	–	0.341	0.381	0.258	0.206	0.263	0.308	0.32	0.259	0.981	1	0.296	0.55	0.851	–
NCI-H1355	1.09	1.09	0.775	1.12	0.974	1.03	0.948	0.43	0.436	0.465	0.402	1.03	1.05	0.585	0.817	1.09	0.956
NCI-H1944	0.962	1.04	0.616	0.577	0.579	0.588	0.537	0.396	0.392	0.446	0.306	1.01	0.901	0.263	0.526	0.943	0.963
NCI-H460	0.874	0.767	0.197	0.0596	0.0601	0.0605	0.0623	0.132	0.129	0.113	0.0704	1.01	1.04	0.415	0.868	0.871	0.955
NCI-H322M	0.894	0.552	0.584	0.575	0.585	0.629	0.478	0.498	–	0.573	0.458	0.92	1.02	0.493	0.682	0.891	–
NCI-H1666	1.27	0.958	0.578	0.843	0.921	0.846	0.816	0.79	0.86	0.863	0.727	0.901	0.975	0.601	0.846	0.974	0.892
201T	1.05	1.06	1.01	0.33	0.283	0.377	0.362	0.707	0.705	0.759	0.71	0.973	0.968	0.915	0.89	1.02	0.956
LC-2-ad	0.452	0.405	0.369	0.291	0.252	0.265	0.275	0.942	0.816	0.934	0.743	1.06	0.928	0.453	0.494	0.441	0.913
NCI-H1755	0.89	0.852	0.634	0.376	0.42	0.401	0.4	0.733	0.696	0.849	0.742	1.03	1.04	0.577	0.953	0.803	0.994
NCI-H2342	–	–	–	0.809	0.778	0.744	0.759	0.77	0.969	0.849	0.897	0.997	–	0.52	0.909	–	–
BEN	0.921	0.907	0.727	0.847	0.72	0.923	0.487	1.03	1.02	–	0.961	1.11	1.06	–	0.759	0.91	0.921
EKVX	–	0.932	0.802	0.371	0.351	0.382	0.351	0.369	0.301	0.339	0.422	0.939	0.988	0.386	0.898	0.766	0.937
SW 1573	0.706	0.762	0.273	0.793	0.796	0.848	0.212	0.521	0.652	0.569	0.179	1.02	0.945	0.191	0.48	0.782	0.904
NCI-H441	0.591	0.828	0.628	0.264	0.235	0.251	0.237	0.575	0.393	0.428	0.318	0.987	–	0.664	–	0.706	–
NCI-H1437	0.839	0.721	0.922	0.302	0.292	0.328	0.296	0.562	0.422	0.54	0.294	1.01	0.924	0.406	–	0.929	0.941
H3255	0.765	1.01	0.769	0.519	0.579	0.567	0.552	0.578	0.618	0.552	0.659	1.07	0.966	0.721	0.833	0.801	0.854

Cell Line	relative viability ([1]; first compound 0.01265 µM)	relative viability ([1]; first compound 0.04 µM)	relative viability ([1]; first compound 0.1265 µM)	relative viability ([2]; first compound 0.004 µM)	relative viability ([2]; first compound 0.01265 µM)	relative viability ([2]; first compound 0.04 µM)	relative viability ([2]; first compound 0.1265 µM)	relative viability ([3]; first compound 0.004 µM)	relative viability ([3]; first compound 0.01265 µM)	relative viability ([3]; first compound 0.04 µM)	relative viability ([3]; first compound 0.1265 µM)	relative viability ([4]; 0.004 µM)	relative viability ([4]; 0.04 µM)	relative viability ([4]; 0.1 µM, anchor plate)	relative viability ([4]; 0.1265 µM)	relative viability ([1]; first compound 0.004 µM)	relative viability ([4]; 0.01265 µM)
ABC-1	0.992	0.565	0.249	–	–	–	–	–	–	–	–	1.02	0.767	0.186	0.412	1.21	0.858
CAL-12T	0.635	0.454	0.325	1.3	1.14	1.25	1.01	0.439	0.27	0.445	0.219	1.09	0.952	0.309	0.42	0.823	–
LCLC-97TM1	0.288	0.257	0.189	0.191	0.157	0.15	0.18	0.211	0.22	0.239	0.17	1.07	0.906	0.236	0.396	–	0.94
EMC-BAC-2	0.704	0.461	0.23	0.464	0.407	0.467	0.428	0.873	0.826	0.928	–	1.01	0.913	0.294	0.486	0.803	0.946
NCI-H522	–	–	–	0.931	1.16	0.927	0.837	0.825	–	0.671	0.711	1.12	1.05	0.565	0.671	–	1
LXF-289	0.758	0.717	0.161	0.972	0.824	0.842	0.859	0.69	0.625	0.685	0.571	1	0.943	0.199	0.759	–	0.972
NCI-H2085	0.959	0.667	0.597	0.935	0.815	1.03	0.802	0.681	0.6	0.504	0.476	1.02	0.984	0.84	0.915	0.953	0.982
NCI-H647	0.979	0.794	0.31	0.186	0.183	0.169	0.125	0.459	0.374	0.524	0.32	1.04	0.926	0.279	0.458	1.26	–
NCI-H2023	0.704	0.611	0.403	0.239	0.241	0.246	0.213	0.557	0.455	0.535	0.425	0.999	1.14	0.369	0.605	0.717	0.985
UMC-11	0.568	0.416	0.118	0.852	0.809	0.78	0.26	0.794	0.699	0.653	0.259	1.03	0.966	0.206	0.342	0.478	0.898
NCI-H520	0.742	0.484	0.355	0.743	0.789	0.633	0.413	0.673	0.645	0.765	0.243	1.07	1.07	0.458	0.547	1.31	0.934
SW 900	–	–	–	0.516	–	0.498	0.408	0.653	0.798	0.911	0.509	1.06	0.933	0.566	0.62	–	0.736
NCI-H1703	0.848	0.318	0.24	–	–	–	–	–	–	–	–	1.04	1.21	–	0.556	1.58	0.857
NCI-H1793	–	–	–	1.02	–	1.16	0.458	0.442	0.385	0.415	0.328	1.03	1.01	0.384	0.892	–	0.76
NCI-H1395	–	–	–	0.979	0.797	0.864	0.584	1.1	0.972	1.07	0.638	1.03	0.776	0.768	0.495	–	0.817
NCI-H1563	0.843	0.934	0.84	0.816	0.845	0.823	0.615	–	–	–	–	1.04	1.02	–	0.884	0.843	1.07
A549	0.745	0.393	0.0848	–	–	–	–	–	–	–	–	1.02	1.05	–	0.488	0.839	0.982
NCI-H727	0.783	0.787	0.402	–	–	–	–	0.358	0.395	0.38	0.37	1.15	1.11	0.667	0.78	0.683	0.879
